Reference: ChEMBL document CHEMBL1153641, “Diaminocyclobutenediones as potent and orally bioavailable CXCR2 receptor antagonists: SAR in the phenolic amide region” (Bioorg Med Chem Lett, 2009)

How the values were obtained:
[1] = molecular target: T1, C-X-C chemokine receptor type 2 (Homo sapiens, UniProt P25025)
T1 sequence (P25025 whole entry): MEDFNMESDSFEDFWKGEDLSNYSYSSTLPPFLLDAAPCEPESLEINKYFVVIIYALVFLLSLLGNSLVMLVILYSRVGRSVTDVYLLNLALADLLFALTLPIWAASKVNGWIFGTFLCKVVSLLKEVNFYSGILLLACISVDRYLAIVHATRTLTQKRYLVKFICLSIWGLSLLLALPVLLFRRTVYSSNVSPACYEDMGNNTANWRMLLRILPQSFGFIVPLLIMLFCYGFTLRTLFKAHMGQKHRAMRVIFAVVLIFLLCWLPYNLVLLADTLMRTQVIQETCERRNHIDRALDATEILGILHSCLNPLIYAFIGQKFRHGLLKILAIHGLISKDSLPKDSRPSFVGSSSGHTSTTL
Description: Displacement of human [125I]IL-8 from human CXCR2

[2] = AUC in rat at 10 mg/kg, po; format: ADME, organism-based; set-up: dose 10 mg/kg, route oral; details: plasma
[3] = molecular target: T2, C-X-C chemokine receptor type 1 (Homo sapiens, UniProt P25024)
T2 sequence (P25024 whole entry): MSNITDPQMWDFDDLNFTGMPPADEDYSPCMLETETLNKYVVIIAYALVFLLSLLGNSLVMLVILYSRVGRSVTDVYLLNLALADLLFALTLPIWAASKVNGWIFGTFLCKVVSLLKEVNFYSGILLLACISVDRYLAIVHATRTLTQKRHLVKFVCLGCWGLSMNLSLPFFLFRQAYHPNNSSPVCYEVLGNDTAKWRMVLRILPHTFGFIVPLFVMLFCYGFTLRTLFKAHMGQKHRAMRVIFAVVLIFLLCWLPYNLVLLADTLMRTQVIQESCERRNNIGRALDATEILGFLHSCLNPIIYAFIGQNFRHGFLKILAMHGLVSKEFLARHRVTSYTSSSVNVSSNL
Description: Displacement of human [125I]IL-8 from human CXCR1

Row | Ki [1] [nM] | AUC [2] [µM·h] | Ki [3] [nM] | Structure (SMILES)
1 | 4.4 | 17.4 | – | CC[C@@H](Nc1c(Nc2cccc(C(=O)N(C)C)c2O)c(=O)c1=O)c1ccccc1
2 | 5 | 2.5 | 210 | CC[C@@H](Nc1c(Nc2cccc(C(=O)N(C)C)c2O)c(=O)c1=O)c1cccs1
3 | 20 | – | – | CC[C@@H](Nc1c(Nc2cccc(C(=O)N3CCN(C(=O)c4ccccn4)CC3)c2O)c(=O)c1=O)c1ccccc1
4 | 15 | – | > 1000 | CC[C@@H](Nc1c(Nc2ccc(-c3ccccn3)c(C(=O)N(C)C)c2O)c(=O)c1=O)c1ccccc1
5 | > 2000 | – | – | CC[C@@H](Nc1c(Nc2cc(-c3ccccc3)cc(C(=O)N(C)C)c2O)c(=O)c1=O)c1ccccc1
6 | 50 | 2.2 | 1220 | CC[C@@H](Nc1c(Nc2cc(Cl)cc(C(=O)N(C)C)c2O)c(=O)c1=O)c1cccs1
7 | 76 | – | 2800 | CC[C@@H](Nc1c(Nc2cc(C)cc(C(=O)N(C)C)c2O)c(=O)c1=O)c1cccs1
8 | 22 | – | – | CC[C@@H](Nc1c(Nc2ccccc2O)c(=O)c1=O)c1ccc(C)o1
9 | > 270 | – | – | CC[C@H](c1ccccc1)N(C)c1c(Nc2cccc(C(=O)N(C)C)c2O)c(=O)c1=O
10 | 18 | – | 21 | CC[C@@H](Nc1c(Nc2cccc(C(=O)N3CC[C@H](O)C3)c2O)c(=O)c1=O)c1ccccc1
11 | 20 | 0.44 | – | CC[C@@H](Nc1c(Nc2cccc(C(=O)N3CC[C@H](CO)C3)c2O)c(=O)c1=O)c1ccccc1
12 | 5 | – | 30 | CC[C@@H](Nc1c(Nc2cccc(C(=O)N3CCCC3C(=O)O)c2O)c(=O)c1=O)c1ccccc1 (stereo partly specified)
13 | 4 | 0.06 | – | CC[C@@H](Nc1c(Nc2ccc(Br)c(C(=O)N(C)C)c2O)c(=O)c1=O)c1ccccc1
14 | 17 | – | – | CC[C@@H](Nc1c(Nc2ccc(-c3ccccc3)c(C(=O)N(C)C)c2O)c(=O)c1=O)c1ccccc1
15 | 25 | 2.2 | – | CC[C@@H](Nc1c(Nc2cccc(C(N)=O)c2O)c(=O)c1=O)c1ccccc1
16 | 3 | – | – | CC[C@@H](Nc1c(Nc2cc(C#N)cc(C(=O)N(C)C)c2O)c(=O)c1=O)c1ccccc1
17 | > 270 | – | – | CC[C@@H](Nc1c(N2CCOc3c(C(=O)N(C)C)cccc32)c(=O)c1=O)c1ccccc1

Row | Ki [1] [nM] | AUC [2] [µM·h] | Ki [3] [nM] | Structure (SMILES)
18 | 11 | 1.4 | 123 | CC[C@@H](Nc1c(Nc2cccc(C(=O)N(C)C(C)C)c2O)c(=O)c1=O)c1ccccc1
19 | 20 | 0.5 | – | CC[C@@H](Nc1c(Nc2cccc(C(=O)N3CC(O)C3)c2O)c(=O)c1=O)c1ccccc1
20 | 12 | – | 41 | CC[C@@H](Nc1c(Nc2cccc(C(=O)N3CCN(C)CC3)c2O)c(=O)c1=O)c1ccccc1
21 | 12 | – | – | CC[C@@H](Nc1c(Nc2cccc(C(=O)O)c2O)c(=O)c1=O)c1ccc(C)o1
22 | 27 | – | – | CC[C@@H](Nc1c(Nc2cccc(C(=O)N3CCN(C(C)=O)CC3)c2O)c(=O)c1=O)c1ccccc1
23 | 4.5 | 2.3 | 381 | CC[C@@H](Nc1c(Nc2c(C)ccc(C(=O)N(C)C)c2O)c(=O)c1=O)c1ccccc1
24 | 61 | 1.4 | 2070 | CC[C@@H](Nc1c(Nc2cc(Br)cc(C(=O)N(C)C)c2O)c(=O)c1=O)c1cccs1
25 | 219 | – | – | CC[C@@H](Nc1c(Nc2cccc(C(=O)NC(C)C)c2O)c(=O)c1=O)c1ccccc1
26 | 28 | 0.4 | – | CC[C@@H](Nc1c(Nc2cccc(C(=O)NC)c2O)c(=O)c1=O)c1ccccc1
27 | 203 | – | – | CC[C@@H](Nc1c(Nc2cc(C)cc(C(=O)N(C)C)c2O)c(=O)c1=O)c1ccccc1
28 | 10 | – | – | CC[C@@H](Nc1c(Nc2cccc(C(=O)N3CCOCC3)c2O)c(=O)c1=O)c1ccccc1
29 | 5 | – | 54 | CC[C@@H](Nc1c(Nc2cc(C#N)cc(C(=O)N(C)C)c2O)c(=O)c1=O)c1cccs1
30 | 9 | 1 | – | CC[C@@H](Nc1c(Nc2cccc(C(=O)N3CCCC3)c2O)c(=O)c1=O)c1ccccc1
31 | 34 | – | – | CC[C@@H](Nc1c(Nc2cccc(C(=O)NC3CC3)c2O)c(=O)c1=O)c1ccccc1
32 | > 270 | – | – | CC[C@@H](Nc1c(Nc2cccc(C(=O)N(C)C)c2OC)c(=O)c1=O)c1ccccc1
33 | > 270 | – | – | CC[C@H](c1ccccc1)N(C)c1c(N(C)c2cccc(C(=O)N(C)C)c2O)c(=O)c1=O
